Experimental data as given in PubChem BioAssay (NCI).
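48-hour exposure; five concentrations; linearly interpolated endpoints. The concentration for full growth arrest is given as TGI.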

Columns and labels:
Assay in all cases: inhibition of tumour cell growth, NCI panel, 48 h
PC-3 prostate = tested on: PC-3 prostate
NCI/ADR-RES ovarian = tested on: NCI/ADR-RES ovarian
M14 melanoma = tested on: M14 melanoma
HS 578T breast = tested on: HS 578T breast
HCC-2998 colon = tested on: HCC-2998 colon
SF-268 CNS = tested on: SF-268 CNS
NCI-H460 lung = tested on: NCI-H460 lung
UACC-257 melanoma = tested on: UACC-257 melanoma
EKVX NSCLC = tested on: EKVX NSCLC
SK-OV-3 ovarian = tested on: SK-OV-3 ovarian
OVCAR-8 ovarian = tested on: OVCAR-8 ovarian
A549 NSCLC = tested on: A549 NSCLC
SN12C renal = tested on: SN12C renal
SW-620 colon = tested on: SW-620 colon
BT-549 breast = tested on: BT-549 breast
RXF 393 renal = tested on: RXF 393 renal
HT29 colon = tested on: HT29 colon
SNB-19 CNS = tested on: SNB-19 CNS
SF-295 CNS = tested on: SF-295 CNS
HL-60(TB) leukemia = tested on: HL-60(TB) leukemia
CAKI-1 renal = tested on: CAKI-1 renal
MOLT-4 leukemia = tested on: MOLT-4 leukemia
SK-MEL-5 melanoma = tested on: SK-MEL-5 melanoma
T-47D breast = tested on: T-47D breast
IGROV1 ovarian = tested on: IGROV1 ovarian
RPMI-8226 leukemia = tested on: RPMI-8226 leukemia
HOP-62 NSCLC = tested on: HOP-62 NSCLC
MALME-3M melanoma = tested on: MALME-3M melanoma
KM12 colon = tested on: KM12 colon
MDA-MB-435 = tested on: MDA-MB-435
HCT-15 colon = tested on: HCT-15 colon
HCT-116 colon = tested on: HCT-116 colon
TK-10 renal = tested on: TK-10 renal
A498 renal = tested on: A498 renal
NCI-H23 lung = tested on: NCI-H23 lung
NCI-H226 lung = tested on: NCI-H226 lung
ACHN renal = tested on: ACHN renal
UO-31 renal = tested on: UO-31 renal
DU-145 prostate = tested on: DU-145 prostate
786-0 renal = tested on: 786-0 renal
SR leukemia = tested on: SR leukemia
SK-MEL-28 melanoma = tested on: SK-MEL-28 melanoma
HOP-92 NSCLC = tested on: HOP-92 NSCLC
K-562 leukemia = tested on: K-562 leukemia
OVCAR-5 ovarian = tested on: OVCAR-5 ovarian
UACC-62 melanoma = tested on: UACC-62 melanoma
OVCAR-4 ovarian = tested on: OVCAR-4 ovarian
MDA-N = tested on: MDA-N
SK-MEL-2 melanoma = tested on: SK-MEL-2 melanoma
NCI-H522 lung = tested on: NCI-H522 lung
MCF7 breast = tested on: MCF7 breast
SNB-75 CNS = tested on: SNB-75 CNS
OVCAR-3 ovarian = tested on: OVCAR-3 ovarian
LOX IMVI melanoma = tested on: LOX IMVI melanoma
SF-539 CNS = tested on: SF-539 CNS
COLO 205 colon = tested on: COLO 205 colon
U251 CNS = tested on: U251 CNS
MDA-MB-231 breast = tested on: MDA-MB-231 breast
CCRF-CEM leukemia = tested on: CCRF-CEM leukemia

Measured: TGI

CNC(=O)C(NC(=O)[C@H](CC(C)C)NC(=O)[C@@H](S)CCN1C(=O)N(C)C(C)(C)C1=O)C(C)(C)C (stereo partly specified)
not listed: SNB-75 CNS | OVCAR-3 ovarian | LOX IMVI melanoma | SF-539 CNS | COLO 205 colon | U251 CNS | MDA-MB-231 breast | CCRF-CEM leukemia
> 100 µM: all other assays above

CCOC(=O)/C(=C\NC#N)c1nc2ccccc2[nH]1
6.28 µM: UO-31 renal
not listed: PC-3 prostate | HS 578T breast | T-47D breast | NCI-H226 lung | K-562 leukemia | SK-MEL-2 melanoma | U251 CNS | MDA-MB-231 breast | CCRF-CEM leukemia
> 100 µM: all other assays above

CC[C@@]1(O)C(=O)OCc2c1cc1n(c2=O)Cc2c-1nc1ccccc1c2/C=N\NC(=O)C(N)=O
29.9 µM: NCI-H460 lung
17.5 µM: CAKI-1 renal
9.81 µM: A498 renal
> 90.9 µM: BT-549 breast
> 26 µM: SNB-75 CNS
37 µM: OVCAR-8 ovarian
9.65 µM: SNB-19 CNS
13.6 µM: U251 CNS
0.177 µM: SF-539 CNS
3.67 µM: NCI-H23 lung
0.814 µM: ACHN renal
> 23.7 µM: MOLT-4 leukemia
3.72 µM: LOX IMVI melanoma
> 53.9 µM: HCT-116 colon
> 73.5 µM: NCI/ADR-RES ovarian
37.5 µM: RXF 393 renal
14.3 µM: M14 melanoma
46.5 µM: NCI-H522 lung
27.5 µM: SK-OV-3 ovarian
2.96 µM: SK-MEL-5 melanoma
> 79.3 µM: MALME-3M melanoma
> 45.4 µM: MCF7 breast
14.8 µM: SF-295 CNS
49.4 µM: IGROV1 ovarian
12.9 µM: HOP-92 NSCLC
10.9 µM: DU-145 prostate
12 µM: UO-31 renal
> 45.1 µM: HOP-62 NSCLC
> 77.8 µM: SK-MEL-2 melanoma
3.54 µM: UACC-62 melanoma
16 µM: 786-0 renal
not listed: T-47D breast | NCI-H226 lung | SR leukemia | CCRF-CEM leukemia
> 100 µM: all other assays above

COc1cc(OC)c(NC2=NCCO2)cc1Cl
38.2 µM: COLO 205 colon
71.1 µM: HCC-2998 colon
91.7 µM: NCI/ADR-RES ovarian
90 µM: 786-0 renal
99.3 µM: LOX IMVI melanoma
94.5 µM: HCT-116 colon
39.1 µM: KM12 colon
71.8 µM: PC-3 prostate
45.9 µM: NCI-H460 lung
81.5 µM: A498 renal
58.1 µM: NCI-H23 lung
75.6 µM: NCI-H226 lung
47.8 µM: HT29 colon
38.4 µM: MDA-MB-435
83.2 µM: SR leukemia
47.3 µM: SK-MEL-5 melanoma
32.3 µM: MDA-N
53.3 µM: SF-539 CNS
97.8 µM: M14 melanoma
64.5 µM: MDA-MB-231 breast
36.3 µM: SK-MEL-2 melanoma
not listed: SK-OV-3 ovarian | BT-549 breast | CAKI-1 renal | HOP-92 NSCLC
> 100 µM: all other assays above
